Key:
HDAC6 = HDAC6 (Homo sapiens (Human), UniProt Q9UBN7); test: Tubulin acetylation cytoblot assay (A549 cells); assay type: cell-based; conditions: 17-18 h, concentration for 50% induction of acetylated tubulin, read-out: Tub-ac EC50
Procedure: Tubulin acetylation is a PD marker for HDAC6 inhibition. The extent of tubulin acetylation represents the inhibitory effect on HDAC6.
Novel compounds were tested for their ability to inhibit HDAC6 using a cell-based deacetylation assay. Tubulin acetylation was detected by the anti-acetylated tubulin antibody (Sigma) and horse radish peroxidase (HRP) conjugated secondary antibody (KangChen Bio. Tech.). […] 20 μl of diluted compound solution was transferred to the cell culture plate and incubated for 17-18 h. After medium removal and fixation by formaldehyde (3.7% paraformaldehyde in TBS), the cells in the plates were treated with 180 μl of −20° C. MeOH and incubated for 5 min at rt. The cell lysis was incubated with 75 μl of primary anti-acetylated tubulin antibody and secondary HRP conjugated antibody solution (1:750 anti-acetylated tubulin, 1:750 HRP conjugated anti-mouse IgG in antibody dilution buffer not containing sodium azide) for 4 h at 4° C. By adding the HRP substrate, enhanced chemiluminescence (ECL) reagent (GE Healthcare) generated luminescence corresponding to the level of tubulin acetylation. So that 75 μl of ECL was added into the wells and the luminescence from each well was immediately quantified by the plate reader. Based on the luminescence reading, the IC50s against HDAC6 of the tested compounds were calculated by plotting the curve with XLfit4.0 software. Inhibition %=[signal(sample)−Mean(bottom)]*100/[Mean(top)−Mean(bottom)]

[1] = tested on: p21 promoter-luciferase construct; test: p21 reporter gene induction in HeLa cells transfected with p21 promoter-luciferase construct; assay type: cell-based; conditions: for p21 RP3: relative gene level of p21 induced compared to MS275 at 3 μM; for p21 RP10: relative level of p21 induced compared to MS275 at 10 μM; for p21 RP30: relative level of p21 induced compared to MS275 at 30 μM
Procedure: As a surrogate for in-cell HDAC1/2/3 inhibition, p21 induction was used as a counterscreen to evaluate the selectivity of the compounds in the present invention toward HDAC6 or HDAC8.
The novel compounds of the present invention were tested for their ability to induce p21 gene expression using a reporter gene assay involving HeLa cells transfected with a p21 promoter-luciferase construct. The p21 promoter contained the Sp1/Sp3 binding site for HDAC but not the upstream p53 binding site. Briefly, the day before transfection, HeLa cells were seeded at 11,000 cells/well in a 96-well culture plate and incubated at 37° C. in 5% CO2 overnight. A transfection media was prepared prior to transfection according to the following procedure: (1) 5 μl serum-free DMEM, 0.15 μl Fugene 6 reagent, 40 ng p21-luc, 10 ng GFP were mixed gently and incubated at rt for 30 minutes; (2), then 98 μl DMEM (with 10% FBS, 1% penicillin and streptomycin) was added to the DNA: Fugene 6 reagent complex and mixed gently. For transfection, the medium was removed and replaced with 100 μl/well transfection media which was prepared according to the procedure above. After incubating the cells for 24 hours at 37° C. in 5% CO2, fresh media and test compounds were added to the wells and the cells further incubated for 15 hours at 37° C. in 5% CO2. Cells were lysed by adding 80 μl/well of a cell culture lysis reagent (Promega). […] 100 μl luciferase assay reagent (Promega) was then added to every 20 μl cell lysate for luminometer detection. […] Induction activity for specific representative compounds can be found in Table 3.

recombinant human HDAC8 = recombinant human HDAC8 (Homo sapiens (Human), UniProt Q9BY41); test: HDAC8 inhibition: recombinant HDAC8 fluorometric assay; assay type: biochemical; conditions: recombinant human HDAC8, substrate Ac-Arg-His-Lys-Lys(ε-acetyl)-AMC
Procedure: A competitive inhibitory assay of HDAC8 was carried out by using recombinant HDAC8 and a commercial substrate Ac-Arg-His-Lys-Lys(ε-acetyl)-AMC.
Compounds were tested for their ability to inhibit histone deacetylase 8 using an in vitro deacetylation assay. The enzyme source for this assay was recombinant human HDAC8 protein expressed and purified from insect cells. […] The substrate consisted of a commercial product Ac-Arg-His-Lys-Lys(ε-acetyl)-AMC (substrate is available from Cayman Chemical). […] In a detailed procedure, 8 μl of HDAC8 enzyme solution (0.125 μg/μl) was transferred to assay plates (CORNING 3676). 1 μl of half-log diluted compounds were added into wells and incubated for 15 min at rt. After that, 8 μl of substrate solution was transferred to the wells and incubated for 30 min at rt. After deacetylation of the substrate by incubation with HDAC8 enzyme, subsequent exposure to a developing reagent produced a fluorophore that was directly proportional to the level of deacetylation. So 4 μl of developer regent (Cayman 10006394) was added into the wells in the assay plates and incubated for 15 min. The fluorescence signal was measured by a FlexStation3 plate reader (excitation wave length 340-360 nm; emission wave length 440-465 nm). The IC50 was calculated after normalization and curve fitting using XLfit4.0 software. Inhibition %=[Mean(top)−signal(sample)]*100/[Mean(top)−Mean(bottom)].

Sequence of recombinant human HDAC8 (Q9BY41 whole entry): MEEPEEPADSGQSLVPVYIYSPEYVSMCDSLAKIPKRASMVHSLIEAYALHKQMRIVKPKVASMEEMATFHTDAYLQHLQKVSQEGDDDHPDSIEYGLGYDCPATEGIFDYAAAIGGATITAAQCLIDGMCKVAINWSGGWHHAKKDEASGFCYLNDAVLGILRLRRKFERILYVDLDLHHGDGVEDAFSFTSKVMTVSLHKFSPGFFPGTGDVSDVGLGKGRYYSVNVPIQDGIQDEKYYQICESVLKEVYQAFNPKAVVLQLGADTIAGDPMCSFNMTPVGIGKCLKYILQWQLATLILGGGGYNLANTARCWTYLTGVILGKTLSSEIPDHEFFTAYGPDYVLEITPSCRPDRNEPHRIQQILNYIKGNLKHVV
Sequence of HDAC6 (Q9UBN7 whole entry): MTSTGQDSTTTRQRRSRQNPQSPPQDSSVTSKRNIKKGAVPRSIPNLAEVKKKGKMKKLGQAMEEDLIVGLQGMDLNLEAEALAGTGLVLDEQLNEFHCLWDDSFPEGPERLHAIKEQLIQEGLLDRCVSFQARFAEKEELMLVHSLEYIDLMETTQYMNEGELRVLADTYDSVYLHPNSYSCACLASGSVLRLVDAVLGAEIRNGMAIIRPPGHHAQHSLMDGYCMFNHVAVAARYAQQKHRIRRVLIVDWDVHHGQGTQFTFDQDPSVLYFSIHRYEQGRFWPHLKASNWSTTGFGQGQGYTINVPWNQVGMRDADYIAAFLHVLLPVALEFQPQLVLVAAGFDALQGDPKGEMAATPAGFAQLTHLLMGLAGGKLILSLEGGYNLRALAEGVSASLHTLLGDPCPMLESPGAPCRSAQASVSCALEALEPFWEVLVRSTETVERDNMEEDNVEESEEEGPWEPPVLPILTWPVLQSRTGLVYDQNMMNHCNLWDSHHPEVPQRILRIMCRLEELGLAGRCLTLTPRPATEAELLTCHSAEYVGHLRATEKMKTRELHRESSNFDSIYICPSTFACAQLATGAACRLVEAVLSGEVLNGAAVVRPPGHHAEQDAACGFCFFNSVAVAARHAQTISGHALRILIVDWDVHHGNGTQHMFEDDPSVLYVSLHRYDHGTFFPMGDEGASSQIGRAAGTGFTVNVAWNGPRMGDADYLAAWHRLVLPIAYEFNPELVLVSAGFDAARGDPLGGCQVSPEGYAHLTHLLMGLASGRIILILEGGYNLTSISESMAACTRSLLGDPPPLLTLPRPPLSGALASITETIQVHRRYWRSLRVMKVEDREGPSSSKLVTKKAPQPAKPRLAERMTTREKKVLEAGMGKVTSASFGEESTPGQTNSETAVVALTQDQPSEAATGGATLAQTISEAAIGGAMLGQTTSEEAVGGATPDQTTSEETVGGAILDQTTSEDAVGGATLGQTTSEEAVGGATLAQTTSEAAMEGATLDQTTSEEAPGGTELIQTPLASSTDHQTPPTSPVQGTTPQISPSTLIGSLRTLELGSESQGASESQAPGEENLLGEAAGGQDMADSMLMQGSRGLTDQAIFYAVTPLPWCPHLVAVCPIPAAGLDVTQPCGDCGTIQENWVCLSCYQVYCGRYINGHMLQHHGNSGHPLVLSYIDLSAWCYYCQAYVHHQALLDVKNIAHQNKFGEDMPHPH

Row | SMILES | EC50 (HDAC6) [µM] | IC50 (recombinant human HDAC8) [µM] | p21 RP3 [1] | p21 RP10 [1] | p21 RP30 [1]
1 | O=C(NO)c1cc2c(cc1F)CCC(Nc1nccc(-c3cccnc3)n1)C2 (stereo not drawn) [Example 50, 3-Fluoro-7-(4-pyridin-3-yl-pyrimidin-2-ylamino)-5,6,7,8-tetrahydro-naphthalene-2-carboxylic acid hydroxyamide] | 6.43 | 1.51 | 0.26 | 0.03 | −0.01
2 | O=C(NO)c1ccc2c(c1)CC(Nc1ncc3cc(F)ccc3n1)CC2 (stereo not drawn) [Example 35, 7-(6-Fluoro-quinazolin-2-ylamino)-5,6,7,8-tetrahydro-naphthalene-2-carboxylic acid hydroxyamide] | 0.93 | 1.78 | −0.86 | −0.30 | 
3 | CN(C)c1cccc(-c2ccnc(NC3CCc4ccc(C(=O)NO)cc4C3)n2)c1 (stereo not drawn) [Example 16, 7-[4-(3-Dimethylamino-phenyl)-pyrimidin-2-ylamino]-5,6,7,8-tetrahydro-naphthalene-2-carboxylic acid hydroxyamid] | 3.46 | 0.8 | 1.50 | 0.40 | 0.30
4 | O=C(NO)c1ccc2c(c1)CC(NS(=O)(=O)c1ccc(F)cc1F)CC2 (stereo not drawn) [Example 44, 7-(2,4-Difluoro-benzenesulfonylamino)-5,6,7,8-tetrahydro-naphthalene-2-carboxylic acid hydroxyamide] | 3.9 | 0.21 | 0.63 | 0.32 | 0.56
5 | O=C(NO)c1ccc2c(c1)CC(Nc1nccc(-c3ccc(N4CCOCC4)nc3)n1)CC2 (stereo not drawn) [Example 31, 7-[4-(6-Morpholin-4-yl-pyridin-3-yl)-pyrimidin-2-ylamino]-5,6,7,8-tetrahydro-naphthalene-2-carboxylic acid hydroxyamide] | 6.7 | 0.32 | 0.18 | 0.19 | 0.12
6 | O=C(NC1CCc2ccc(C(=O)NO)cc2C1)OCc1cccnc1 (stereo not drawn) [Example 38] | 0.93 | 1.27 | 0.15 | 0.05 | 0.02
7 | O=C(NO)c1ccc2c(c1)CC(NS(=O)(=O)c1cccc(C(F)(F)F)c1)CC2 (stereo not drawn) [Example 43, 7-(3-Trifluoromethyl-benzenesulfonylamino)-5,6,7,8-tetrahydro-naphthalene-2-carboxylic acid hydroxyamid] | 3.85 | 0.37 | 0.13 | 0.08 | −0.04
8 | O=C(NO)c1cc2c(cc1F)CCC(NS(=O)(=O)c1ccc(Cl)cc1)C2 (stereo not drawn) [Example 51, 7-(4-Chloro-benzenesulfonylamino)-3-fluoro-5,6,7,8-tetrahydro-naphthalene-2-carboxylic acid hydroxyamide] | 5.2 | 1.28 | 0.20 | 0.03 | 0.00
9 | O=C(NO)c1ccc2c(c1)CC(Nc1nccc(-c3ccc(Cl)nc3)n1)CC2 (stereo not drawn) [Example 29, 7-[4-(6-Chloro-pyridin-3-yl)-pyrimidin-2-ylamino]-5,6,7,8-tetrahydro-naphthalene-2-carboxylic acid hydroxyamide] | 1.43 | 0.9 | 0.39 | 0.07 | −0.02
10 | O=C(NO)c1ccc2c(c1)CC(Nc1nccc(-c3cccnc3Cl)n1)CC2 (stereo not drawn) [Example 30, 7-[4-(2-Chloro-pyridin-3-yl)-pyrimidin-2-ylamino]-5,6,7,8-tetrahydro-naphthalene-2-carboxylic acid hydroxyamide] | 0.6 | 0.51 | 0.40 | 0.10 | −0.03
11 | Cc1cc(Oc2ccccc2)nc(NC2CCc3ccc(C(=O)NO)cc3C2)n1 (stereo not drawn) [Example 32, 7-(4-Methyl-6-phenoxy-pyrimidin-2-ylamino)-5,6,7,8-tetrahydro-naphthalene-2-carboxylic acid hydroxyamide] | 5.2 | 1.5 | 0.26 | 0.15 | −0.04
12 | O=C(NO)c1ccc2c(c1)CC(NS(=O)(=O)c1ccc(Cl)c(Cl)c1)CC2 (stereo not drawn) [Example 47, 7-(3,4-Dichloro-benzenesulfonylamino)-5,6,7,8-tetrahydro-naphthalene-2-carboxylic acid hydroxyamide] | 3.42 | 0.47 | 0.08 | 0.01 | −0.04

Second part, led by results:

Row | EC50 (HDAC6) [µM] | IC50 (recombinant human HDAC8) [µM] | SMILES | p21 RP3 [1] | p21 RP10 [1] | p21 RP30 [1]
13 | 10.6 | 0.75 | CN1CC(NS(=O)(=O)c2ccc(Cl)cc2)Cc2cc(C(=O)NO)ccc21 (stereo not drawn) [Example 65, 3-(4-Chloro-benzenesulfonylamino)-1-methyl-1,2,3,4-tetrahydro-quinoline-6-carboxylic acid hydroxyamide] | 0.41 | 0.26 | 0.46
14 | 3.74 | 0.93 | O=C(NO)c1cc2c(cc1F)CCC(NS(=O)(=O)c1cccc(Cl)c1)C2 (stereo not drawn) [Example 52, 7-(3-Chloro-benzenesulfonylamino)-3-fluoro-5,6,7,8-tetrahydro-naphthalene-2-carboxylic acid hydroxyamide] | 0.12 | 0.01 | −0.02
15 | 7.13 | 2.67 | O=C(NO)c1ccc2c(c1)CC(NC(=O)c1cccc(C(F)(F)F)c1)CN2 (stereo not drawn) [Example 57, 3-(3-Trifluoromethyl-benzoylamino)-1,2,3,4-tetrahydro-quinoline-6-carboxylic acid hydroxyamide] | 0.07 | 0.01 | 0.04
16 | 2.69 | 2.41 | O=C(NO)c1ccc2c(c1)CC(NC(=O)c1ccc(Cl)cc1)CN2 (stereo not drawn) [Example 55, 3-(4-Chloro-benzoylamino)-1,2,3,4-tetrahydro-quinoline-6-carboxylic acid hydroxyamide] | 0.50 | 0.13 | 0.06
17 | 3.39 | 2.81 | COc1cccc(C(=O)NC2CNc3ccc(C(=O)NO)cc3C2)c1 (stereo not drawn) [Example 54, 3-(3-Methoxy-benzoylamino)-1,2,3,4-tetrahydro-quinoline-6-carboxylic acid hydroxyamide] | 0.03 | 0.03 | 0.07
